# Measured values as given in patent publication US5041567A, “Antibacterial monic acid derivatives” (Beecham Group plc, priority 1982, dated 1991).
# Read-outs that look alike come from different tables or passages of the source.
# Experiments:
# [1] = system: M. hyosynoviae ATCC 25591; experiment: MIC against mycoplasma in vitro; type: cell-based; settings: 144 h
# [2] = system: M. suipneumoniae ATCC 25095; experiment: MIC against mycoplasma in vitro; type: cell-based; settings: Mesomycoplasma hyopneumoniae, ATCC25095, 144 h
# [3] = system: S. typhimurium S18; experiment: MIC against veterinary bacteria in vitro; settings: Salmonella enterica, TYPHIMURIUM, 18 h
# Procedure: (§1) The activity of the compounds of the Examples against various veterinarily important bacteria, was assayed in vitro using two-fold serial dilutions in Diagnostic Sensitivity Test Agar inoculated with 10^4 organisms.
# [4] = system: P. mirabilis 889; experiment: MIC against human bacteria in vitro; type: cell-based; settings: Proteus mirabilis; P. mirabilis 889; 5% chocolated horse blood agar, 18 hours; read-out: MIC
# [5] = system: Staph. aureus Oxford; experiment: MIC against human bacteria in vitro; type: cell-based; settings: Staphylococcus aureus; Staph. aureus Oxford; 5% chocolated horse blood agar, 18 hours; read-out: MIC
# [6] = system: Neisseria catarrhalis 1502; experiment: MIC against human bacteria in vitro; type: cell-based
# [7] = system: K. aerogenes A; experiment: MIC against human bacteria in vitro; type: cell-based; settings: Klebsiella aerogenes; K. aerogenes A; 5% chocolated horse blood agar, 18 hours; read-out: MIC
# [8] = system: Staph. aureus Russell; experiment: MIC against human bacteria in vitro; type: cell-based; settings: Staphylococcus aureus
# [9] = system: M. suipneumoniae JF 435; experiment: MIC against mycoplasma in vitro; type: cell-based; settings: Mesomycoplasma hyopneumoniae, JF435, 144 h
# [10] = system: E. coli ESS; experiment: MIC against human bacteria in vitro; type: cell-based; settings: Escherichia coli; E. coli ESS; 5% chocolated horse blood agar, 18 hours; read-out: MIC
# [11] = system: Staph. aureus 152 (pen. sens); experiment: MIC against veterinary bacteria in vitro; settings: Staphylococcus aureus, 18 h
# Procedure: as §1
# [12] = system: M. suipneumoniae TAM 6N; experiment: MIC against mycoplasma in vitro; type: cell-based; settings: Mesomycoplasma hyopneumoniae, TAM6N, 144 h; M. suipneumoniae TAM 6N; 6 days, 37° C.; read-out: MIC
# [13] = system: M. suipneumoniae LABER; experiment: MIC against mycoplasma in vitro; type: cell-based; settings: Mesomycoplasma hyopneumoniae, 144 h
# [14] = system: Past. multocida PA2; experiment: MIC against veterinary bacteria in vitro; settings: Pasteurella multocida, PA2, 18 h
# Procedure: as §1
# [15] = system: Staph. aureus W2827; experiment: MIC against human bacteria in vitro; type: cell-based; settings: Staphylococcus aureus
# [16] = system: E. coli E1; experiment: MIC against veterinary bacteria in vitro; settings: Escherichia coli, E1, 18 h
# Procedure: as §1
# [17] = system: Strep. faecalis I; experiment: MIC against human bacteria in vitro; type: cell-based; settings: Enterococcus faecalis; Strep. faecalis I; 5% chocolated horse blood agar, 18 hours; read-out: MIC
# [18] = system: M. pneumoniae ATCC 15492; experiment: MIC against mycoplasma in vitro; type: cell-based; settings: Mycoplasmoides pneumoniae, ATCC15492, 144 h
# [19] = system: Sarcina lutea 8340; experiment: MIC against human bacteria in vitro; type: cell-based; settings: Micrococcus luteus; Sarcina lutea 8340; 5% chocolated horse blood agar, 18 hours; read-out: MIC
# [20] = system: Bord. bronchiseptica B08; experiment: MIC against veterinary bacteria in vitro; settings: Bordetella bronchiseptica, B08, 18 h
# Procedure: as §1
# [21] = system: Strep. uberis SPU1; experiment: MIC against veterinary bacteria in vitro; settings: Streptococcus uberis, SPU1, 18 h
# Procedure: as §1
# [22] = system: M. hyorhinis ATCC 23234; experiment: MIC against mycoplasma in vitro; type: cell-based; settings: Mesomycoplasma hyorhinis, ATCC23234, 144 h
# [23] = system: Staph. aureus B4 (pen. resistant); experiment: MIC against veterinary bacteria in vitro; settings: Staphylococcus aureus, 18 h
# Procedure: as §1
# [24] = system: Bacillus subtilis 6633; experiment: MIC against human bacteria in vitro; type: cell-based; settings: Bacillus subtilis 6633; 5% chocolated horse blood agar, 18 hours; read-out: MIC
# [25] = system: Pasteurella multocida 1633; experiment: MIC against human bacteria in vitro; type: cell-based
# [26] = system: Strep. pneumoniae CN33; experiment: MIC against human bacteria in vitro; type: cell-based; settings: Streptococcus pneumoniae; Strep. pneumoniae CN33; 5% chocolated horse blood agar, 18 hours; read-out: MIC
# [27] = system: M. suipneumoniae J2206/183^b; experiment: MIC against mycoplasma in vitro; type: cell-based; settings: Mesomycoplasma hyopneumoniae, 144 h
# [28] = system: M. hyorhinis ATCC 25021; experiment: MIC against mycoplasma in vitro; type: cell-based; settings: Mesomycoplasma hyorhinis, ATCC25021, 144 h
# [29] = system: M. dispar NCTC 10125; experiment: MIC against mycoplasma in vitro; type: cell-based; settings: 144 h
# [30] = system: Strep. suis (group D) SPS11; experiment: MIC against veterinary bacteria in vitro; settings: Streptococcus suis, 18 h
# Procedure: as §1
# [31] = system: M. suipneumoniae NCTC 10110; experiment: MIC against mycoplasma in vitro; type: cell-based; settings: Mesomycoplasma hyopneumoniae, NCTC10110, 144 h
# [32] = system: M. suipneumoniae MS 16; experiment: MIC against mycoplasma in vitro; type: cell-based; settings: Mesomycoplasma hyopneumoniae, MS16, 144 h
# [33] = system: M. suipneumoniae HK(2); experiment: MIC against mycoplasma in vitro; type: cell-based; settings: Mesomycoplasma hyopneumoniae, 144 h
# [34] = system: Strep. pyogenes R80/421-A; experiment: MIC against human bacteria in vitro; type: cell-based; settings: Streptococcus pyogenes; Strep. pyogenes R80/421-A; 5% chocolated horse blood agar, 18 hours; read-out: MIC
SMILES,MIC [3] [µg/mL],MIC [4] [µg/mL],MIC [5] [µg/mL],MIC [7] [µg/mL],MIC [10] [µg/mL],MIC [12] [µg/mL],MIC [14] [µg/mL],MIC [16] [µg/mL],MIC [17] [µg/mL],MIC [19] [µg/mL],MIC [20] [µg/mL],MIC [21] [µg/mL],MIC [24] [µg/mL],MIC [26] [µg/mL],MIC [29] [µg/mL],MIC [30] [µg/mL],MIC [31] [µg/mL],further results
"C/C(=C\c1ncc(-c2cccc(C#N)c2)o1)C[C@@H]1OC[C@H](C[C@@H]2O[C@H]2[C@@H](C)[C@H](C)O)[C@@H](O)[C@H]1O [Example 5, 5-m-cyanophenyl-2-(1-normon-2-yl)oxazole A]",> 80,> 50,1.2,> 50,1.2,0.1,2.5,> 80,50,> 50,80,0.07,1.2,2.5,0.025,10,0.1,"MIC [1]: 0.25 µg/mL; MIC ([2]; M. suipneumoniae ATCC 25095, 6 days, 37° C., read-out: MIC): 0.05 µg/mL; MIC ([6]; Neisseria, 1502, 18 h): 5 µg/mL; MIC ([8]; 18 h): 5 µg/mL; MIC ([9]; M. suipneumoniae JF 435, 6 days, 37° C., read-out: MIC): 0.1 µg/mL; MIC [11]: 0.625 µg/mL; MIC ([13]; M. suipneumoniae LABER, 6 days, 37° C., read-out: MIC): 0.05 µg/mL; MIC ([15]; W2827, 18 h): 5 µg/mL; MIC [18]: 0.25 µg/mL; MIC ([22]; M. hyorhinis ATCC 23234, 6 days, 37° C., read-out: MIC): 0.05 µg/mL; MIC [23]: 1.25 µg/mL; MIC ([25]; Pasteurella multocida, 1633, 18 h): 5 µg/mL; MIC ([27]; M. suipneumoniae J2206/183^b, 6 days, 37° C., read-out: MIC): 0.1 µg/mL; MIC ([28]; M. hyorhinis ATCC 25021, 6 days, 37° C., read-out: MIC): 0.05 µg/mL; MIC ([32]; M. suipneumoniae MS 16, 6 days, 37° C., read-out: MIC): 0.05 µg/mL"
"C/C(=C\c1ncc(-c2cccc([N+](=O)[O-])c2)o1)C[C@@H]1OC[C@H](C[C@@H]2O[C@H]2[C@@H](C)[C@H](C)O)[C@@H](O)[C@H]1O [Example 6, 5-m-nitrophenyl-2-(1-normon-2-yl)oxazole A]",> 80,> 128,8,> 128,16,0.1,1.25,> 80,> 128,> 128,80,0.07,2,4,0.025,10,0.05,"MIC ([1]; M. hyosynoviae ATCC 25591, 6 days, 37° C., read-out: MIC): 0.5 µg/mL; MIC [33]: 0.05 µg/mL; MIC [2]: 0.05 µg/mL; MIC ([6]; Neisseria catarrhalis 1502, 5% chocolated horse blood agar, 18 hours, read-out: MIC): 4 µg/mL; MIC ([8]; Staph. aureus Russell, 5% chocolated horse blood agar, 18 hours, read-out: MIC): 16 µg/mL; MIC [9]: 0.05 µg/mL; MIC [13]: 0.05 µg/mL; MIC ([15]; Staph. aureus W2827, 5% chocolated horse blood agar, 18 hours, read-out: MIC): 16 µg/mL; MIC ([18]; M. pneumoniae ATCC 15492, 6 days, 37° C., read-out: MIC): 1 µg/mL; MIC [34]: 4 µg/mL; MIC [22]: 0.025 µg/mL; MIC ([25]; Pasteurella multocida 1633, 5% chocolated horse blood agar, 18 hours, read-out: MIC): 16 µg/mL; MIC [27]: 0.05 µg/mL; MIC [28]: 0.025 µg/mL; MIC [32]: 0.025 µg/mL"
